System: Haemaphysalis longicornis
Test: Test Example 10: Haemaphysalis longicornis, treated filter paper pouch
Format: in vivo
Details: 0.5 mg compound on filter paper 5×10 cm; non-blood sucking nymphal ticks; after 2 days
Description: In 1 mL of acetone, 0.5 mg of any one of the present compounds 1 to 48 was dissolved, and the solution was spread uniformly on one side of a filter paper (TOYO No. 2; 5×10 cm). After dried, the filter paper was folded into two, and the sides were clipped to make a pouch. Into the pouch, tested ticks (Haemaphysalis longicornis, non-blood sucking nymphal ticks, 10 ticks in a group) were placed. The pouch was clipped and sealed. After 2 days, the number of dead ticks was counted.

| Structure (SMILES) | death rate [%] |
| --- | --- |
| CCC(=COc1ccccc1)C(=Nc1ccccc1)Oc1ccccc1 [Compound 301, phenyl 2-ethyl-3-phenoxy-N-phenyl-2-propenimidate] | 100 |
| CCc1cccc(OC(=Nc2ccc(OC)cc2)C(C)=COc2ccccc2OC)c1 [Compound 247, 3-ethylphenyl N-(4-methoxyphenyl)-3-(2-methoxyphenyloxy)-2-methyl-2-propenimidate] | 100 |
| CCc1cccc(OC(=Nc2ccc(C)cc2)C(C)=COc2cccc(C)c2)c1 [Compound 185, 3-ethylphenyl 2-methyl-N-(4-methylphenyl)-3-(3-methylphenyloxy)-2-propenimidate] | 100 |
| COc1ccc(OC=C(C)C(=Nc2ccccc2)Oc2ccccc2)cc1 [Compound 262, phenyl 3-(4-methoxyphenyloxy)-2-methyl-N-phenyl-2-propenimidate] | 100 |
| CC(=COc1cccc(C)c1)C(=Nc1ccc(C)cc1)Oc1ccccc1 [Compound 183, phenyl 2-methyl-N-(4-methylphenyl)-3-(3-methylphenyloxy)-2-propenimidate] | 100 |
| CC(=COc1ccc(C)cc1)C(=Nc1ccccc1)Oc1ccccc1C [Compound 194, 2-methylphenyl 2-methyl-3-(4-methylphenyloxy)-N-phenyl-2-propenimidate] | 100 |
| CC(=COc1ccc(C)cc1)C(=Nc1ccccc1)Oc1ccc2ccccc2c1 [Compound 207, 2-naphthyl 2-methyl-3-(4-methylphenyloxy)-N-phenyl-2-propenimidate] | 100 |
| COc1ccc(OC=C(C)C(=Nc2ccccc2)Oc2cccc(OC)c2)cc1 [Compound 266, 3-methoxyphenyl 3-(4-methoxyphenyloxy)-2-methyl-N-phenyl-2-propenimidate] | 100 |
| CC(=COc1ccc(C(C)C)cc1)C(=Nc1ccccc1)Oc1ccccc1 [Compound 230, phenyl 3-(4-isopropylphenyloxy)-2-methyl-N-phenyl-2-propenimidate] | 100 |
| CC(=COc1cccc(C)c1)C(=Nc1ccccc1)Oc1cccc(C(C)C)c1 [Compound 178, 3-isopropylphenyl 2-methyl-3-(3-methylphenyloxy)-N-phenyl-2-propenimidate] | 100 |
| COc1ccc(N=C(Oc2cccc(OC)c2)C(C)=COc2ccc(OC)cc2)cc1 [Compound 279, 3-methoxyphenyl N-(4-methoxyphenyl)-3-(4-methoxyphenyloxy)-2-methyl-2-propenimidate] | 100 |
| COc1ccccc1OC=C(C)C(=Nc1ccc(C)cc1)Oc1ccccc1 [Compound 239, phenyl 3-(2-methoxyphenyloxy)-2-methyl-N-(4-methylphenyl)-2-propenimidate] | 100 |
| CC(=COc1ccc(C)cc1)C(=Nc1ccc(C)cc1)Oc1cccc(F)c1 [Compound 214, 3-fluorophenyl 2-methyl-N-(4-methylphenyl)-3-(4-methylphenyloxy)-2-propenimidate] | 100 |
| COc1ccccc1OC=C(C)C(=Nc1ccccc1)Oc1cc(C)cc(C)c1 [Compound 238, 3,5-dimethylphenyl 3-(2-methoxyphenyloxy)-2-methyl-N-phenyl-2-propenimidate] | 100 |
| COc1ccccc1OC=C(C)C(=Nc1ccccc1)Oc1cccc(C)c1 [Compound 233, 3-methylphenyl 3-(2-methoxyphenyloxy)-2-methyl-N-phenyl-2-propenimidate] | 100 |
| CCC(=COc1ccccc1)C(=Nc1ccccc1)Sc1ccccc1 [Compound 300, phenyl 2-ethyl-3-phenoxy-N-phenyl-2-propenimidothioate] | 100 |
| CC(=COc1cccc(C)c1)C(=Nc1ccc(C)cc1)Oc1cccc(C)c1 [Compound 184, 3-methylphenyl 2-methyl-N-(4-methylphenyl)-3-(3-methylphenyloxy)-2-propenimidate] | 100 |

From patent US8278473B2, “Alpha, beta-unsaturated imidate compound and pesticidal composition containing the same” (Sumitomo Chemical Company, Limited, priority 2007, dated 2012)
